Test results: PubChem BioAssay (NCI)
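Step 1: Grow cells in 96-well plates. Step 2: Expose to compound for 48 hours at 5 concentrations. Step 3: Interpolate endpoints linearly; if unreached, use highest concentration. GI50 = concentration required for 50% inhibition of growth. TGI marks complete inhibition of growth.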

Columns and labels:
Experiment in all cases: DTP human tumour cell line panel, 48 h
786-0 renal = test system: 786-0 renal
A498 renal = test system: A498 renal
A549 NSCLC = test system: A549 NSCLC
ACHN renal = test system: ACHN renal
BT-549 breast = test system: BT-549 breast
CAKI-1 renal = test system: CAKI-1 renal
CCRF-CEM leukemia = test system: CCRF-CEM leukemia
COLO 205 colon = test system: COLO 205 colon
DU-145 prostate = test system: DU-145 prostate
EKVX NSCLC = test system: EKVX NSCLC
HCC-2998 colon = test system: HCC-2998 colon
HCT-116 colon = test system: HCT-116 colon
HCT-15 colon = test system: HCT-15 colon
HL-60(TB) leukemia = test system: HL-60(TB) leukemia
HOP-62 NSCLC = test system: HOP-62 NSCLC
HOP-92 NSCLC = test system: HOP-92 NSCLC
HS 578T breast = test system: HS 578T breast
HT29 colon = test system: HT29 colon
IGROV1 ovarian = test system: IGROV1 ovarian
K-562 leukemia = test system: K-562 leukemia
KM12 colon = test system: KM12 colon
LOX IMVI melanoma = test system: LOX IMVI melanoma
M14 melanoma = test system: M14 melanoma
MALME-3M melanoma = test system: MALME-3M melanoma
MCF7 breast = test system: MCF7 breast
MDA-MB-231 breast = test system: MDA-MB-231 breast
MDA-MB-435 = test system: MDA-MB-435
MDA-MB-468 breast = test system: MDA-MB-468 breast
MOLT-4 leukemia = test system: MOLT-4 leukemia
NCI-H226 lung = test system: NCI-H226 lung
NCI-H23 lung = test system: NCI-H23 lung
NCI-H460 lung = test system: NCI-H460 lung
NCI-H522 lung = test system: NCI-H522 lung
NCI/ADR-RES ovarian = test system: NCI/ADR-RES ovarian
OVCAR-3 ovarian = test system: OVCAR-3 ovarian
OVCAR-4 ovarian = test system: OVCAR-4 ovarian
OVCAR-5 ovarian = test system: OVCAR-5 ovarian
OVCAR-8 ovarian = test system: OVCAR-8 ovarian
PC-3 prostate = test system: PC-3 prostate
RPMI-8226 leukemia = test system: RPMI-8226 leukemia
RXF 393 renal = test system: RXF 393 renal
SF-268 CNS = test system: SF-268 CNS
SF-295 CNS = test system: SF-295 CNS
SF-539 CNS = test system: SF-539 CNS
SK-MEL-2 melanoma = test system: SK-MEL-2 melanoma
SK-MEL-28 melanoma = test system: SK-MEL-28 melanoma
SK-MEL-5 melanoma = test system: SK-MEL-5 melanoma
SK-OV-3 ovarian = test system: SK-OV-3 ovarian
SN12C renal = test system: SN12C renal
SNB-19 CNS = test system: SNB-19 CNS
SNB-75 CNS = test system: SNB-75 CNS
SR leukemia = test system: SR leukemia
SW-620 colon = test system: SW-620 colon
T-47D breast = test system: T-47D breast
TK-10 renal = test system: TK-10 renal
U251 CNS = test system: U251 CNS
UACC-257 melanoma = test system: UACC-257 melanoma
UACC-62 melanoma = test system: UACC-62 melanoma
UO-31 renal = test system: UO-31 renal

## NS(=O)(=O)c1ccc(Nc2nc(N/N=C/c3cc(Br)c(O)c(Br)c3)nc(Nc3ccccc3)n2)cc1
786-0 renal
  GI50: 15.1 µM
  TGI: 44.3 µM
A498 renal
  GI50: 13.3 µM
  TGI: 36.6 µM
A549 NSCLC
  GI50: 21.8 µM
  TGI: 67.5 µM
ACHN renal
  GI50: 24.8 µM
  TGI: 93.8 µM
BT-549 breast
  GI50: 16.8 µM
  TGI: 42.7 µM
CAKI-1 renal
  GI50: 24 µM
  TGI: 85.7 µM
CCRF-CEM leukemia
  GI50: 11.1 µM
  TGI: 41.6 µM
COLO 205 colon
  GI50: 16 µM
  TGI: 29.8 µM
DU-145 prostate
  GI50: 16.1 µM
  TGI: 30.2 µM
EKVX NSCLC
  GI50: 21.4 µM
  TGI: 69.2 µM
HCC-2998 colon
  GI50: 14.8 µM
  TGI: 29.2 µM
HCT-116 colon
  GI50: 17.7 µM
  TGI: 38.9 µM
HCT-15 colon
  GI50: 32.3 µM
  TGI: > 100 µM
HL-60(TB) leukemia
  GI50: 22 µM
  TGI: 60.9 µM
HOP-62 NSCLC
  GI50: 21.3 µM
  TGI: 58.9 µM
HOP-92 NSCLC
  GI50: 26.7 µM
  TGI: 81.2 µM
HS 578T breast
  GI50: 7.76 µM
  TGI: 81.3 µM
HT29 colon
  GI50: 19.6 µM
  TGI: 49.1 µM
IGROV1 ovarian
  GI50: 18.5 µM
  TGI: 42.2 µM
K-562 leukemia
  GI50: 23.4 µM
  TGI: > 100 µM
KM12 colon
  GI50: 17.5 µM
  TGI: 37.1 µM
LOX IMVI melanoma
  GI50: 15.8 µM
  TGI: 30.4 µM
M14 melanoma
  GI50: 18.8 µM
  TGI: 45.7 µM
MALME-3M melanoma
  GI50: 14.7 µM
  TGI: 34.8 µM
MCF7 breast
  GI50: 16.9 µM
  TGI: 45.4 µM
MDA-MB-231 breast
  GI50: 17.2 µM
  TGI: 47.4 µM
MDA-MB-435
  GI50: 17.8 µM
  TGI: 40.6 µM
MDA-MB-468 breast
  GI50: 2.94 µM
  TGI: 15.5 µM
MOLT-4 leukemia
  GI50: 19.7 µM
  TGI: 52.3 µM
NCI-H226 lung
  GI50: 26.5 µM
  TGI: 98.2 µM
NCI-H23 lung
  GI50: 20.9 µM
  TGI: 50.1 µM
NCI-H460 lung
  GI50: 19.6 µM
  TGI: 60.1 µM
NCI-H522 lung
  GI50: 16.8 µM
  TGI: 42.4 µM
NCI/ADR-RES ovarian
  GI50: > 100 µM
  TGI: > 100 µM
OVCAR-3 ovarian
  GI50: 21.4 µM
  TGI: 63.1 µM
OVCAR-4 ovarian
  GI50: 23.2 µM
  TGI: 81.4 µM
OVCAR-5 ovarian
  GI50: 22.7 µM
  TGI: 62.6 µM
OVCAR-8 ovarian
  GI50: 26.9 µM
  TGI: > 100 µM
PC-3 prostate
  GI50: 19.5 µM
  TGI: 55.2 µM
RPMI-8226 leukemia
  GI50: 22.8 µM
  TGI: 93.5 µM
RXF 393 renal
  GI50: 14.7 µM
  TGI: 32.8 µM
SF-268 CNS
  GI50: 19.9 µM
  TGI: 58.6 µM
SF-295 CNS
  GI50: 22.2 µM
  TGI: 60.2 µM
SF-539 CNS
  GI50: 17.9 µM
  TGI: 41.3 µM
SK-MEL-2 melanoma
  GI50: 15.7 µM
  TGI: 38.1 µM
SK-MEL-28 melanoma
  GI50: 18.1 µM
  TGI: 40.6 µM
SK-MEL-5 melanoma
  GI50: 14.9 µM
  TGI: 28.6 µM
SK-OV-3 ovarian
  GI50: 21.3 µM
  TGI: 61.9 µM
SN12C renal
  GI50: 15.6 µM
  TGI: 32.1 µM
SNB-19 CNS
  GI50: 14.2 µM
  TGI: 27.7 µM
SNB-75 CNS
  GI50: 18.6 µM
  TGI: 61.7 µM
SR leukemia
  GI50: 15.9 µM
  TGI: > 100 µM
SW-620 colon
  GI50: 17.2 µM
  TGI: 42.4 µM
T-47D breast
  GI50: 7.39 µM
  TGI: 27.3 µM
TK-10 renal
  GI50: 27.7 µM
  TGI: 87 µM
U251 CNS
  GI50: 20 µM
  TGI: 71 µM
UACC-257 melanoma
  GI50: 20.6 µM
  TGI: 47.9 µM
UACC-62 melanoma
  GI50: 14.5 µM
  TGI: 28.3 µM
UO-31 renal
  GI50: 26.7 µM
  TGI: > 100 µM
